Reference: ChEMBL document CHEMBL1201862, “PubChem BioAssay data set” (2004)
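Grown in 96-well plates, cells were treated for 48 hours with each compound at five concentrations. Insufficient inhibition: endpoint recorded as highest concentration tested. GI50 marks 50% less growth.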 Active and inactive are the calls of the source. Cut-off read from the data, not from the text of the source: active = GI50 up to about 1.1 µM and inactive = higher.

What was measured:
Experiment in all cases: NCI anticancer screen, dose series, 48 h
A549 = system: A549
COLO 205 = system: COLO 205
HT-29 = system: HT-29
IGROV-1 = system: IGROV-1
K562 = system: K562
KM12 = system: KM12
NCI-H23 = system: NCI-H23
NCI-H460 = system: NCI-H460
OVCAR-3 = system: OVCAR-3
OVCAR-5 = system: OVCAR-5
SF-268 = system: SF-268
SF-539 = system: SF-539
SK-MEL-5 = system: SK-MEL-5
SK-OV-3 = system: SK-OV-3
SNB-19 = system: SNB-19
SW-620 = system: SW-620
TK-10 = system: TK-10
U-251 = system: U-251
UACC-62 = system: UACC-62
UO-31 = system: UO-31

Measured: GI50

Sc1nnc(SCc2ccccc2Cl)c2nc[nH]c12
inactive: A549 > 100 µM | COLO 205 > 100 µM | HT-29 > 100 µM | IGROV-1 > 100 µM | K562 > 100 µM | KM12 > 100 µM | NCI-H23 > 100 µM | NCI-H460 > 100 µM | OVCAR-3 > 100 µM | OVCAR-5 > 100 µM | SF-268 > 100 µM | SF-539 > 100 µM | SK-MEL-5 > 100 µM | SK-OV-3 > 100 µM | SNB-19 > 100 µM | SW-620 > 100 µM | TK-10 > 100 µM | U-251 > 100 µM | UACC-62 > 100 µM | UO-31 > 100 µM

COC(=O)CC(CC(=O)C(=O)OC)C(=O)OC (centres undefined)
inactive: A549 > 100 µM | COLO 205 > 100 µM | HT-29 > 100 µM | IGROV-1 > 100 µM | K562 > 100 µM | KM12 > 100 µM | NCI-H23 > 100 µM | NCI-H460 > 100 µM | OVCAR-3 > 100 µM | OVCAR-5 > 100 µM | SF-539 > 100 µM | SK-MEL-5 > 100 µM | SK-OV-3 > 100 µM | SNB-19 > 100 µM | SW-620 > 100 µM | TK-10 > 100 µM | U-251 > 100 µM | UACC-62 > 100 µM | UO-31 > 100 µM

O=C1CCCC(=O)N1CCc1c[nH]c2ccccc12
inactive: A549 > 100 µM | HT-29 > 100 µM | IGROV-1 > 100 µM | K562 > 100 µM | KM12 > 100 µM | NCI-H23 > 100 µM | NCI-H460 > 100 µM | OVCAR-3 > 100 µM | OVCAR-5 > 100 µM | SF-268 > 100 µM | SF-539 > 100 µM | SK-MEL-5 > 100 µM | SK-OV-3 > 100 µM | SNB-19 > 100 µM | SW-620 > 100 µM | TK-10 > 100 µM | U-251 > 100 µM | UACC-62 > 100 µM | UO-31 > 100 µM

CCCn1c(=O)c(N2CCN(c3ccccc3)CC2)nc2sc3ccccc3c21
inactive: A549 > 100 µM | COLO 205 > 100 µM | HT-29 > 100 µM | IGROV-1 > 100 µM | KM12 > 100 µM | NCI-H23 > 100 µM | NCI-H460 > 100 µM | OVCAR-3 > 100 µM | OVCAR-5 > 100 µM | SF-268 > 100 µM | SF-539 > 100 µM | SK-MEL-5 > 100 µM | SK-OV-3 > 100 µM | SNB-19 > 100 µM | SW-620 > 100 µM | TK-10 > 100 µM | U-251 > 100 µM | UACC-62 > 100 µM | UO-31 > 100 µM

COc1ccc(N[C@H]([C@@H](c2ccccc2)[S+]([O-])c2ccc(C)cc2)C(F)(F)F)cc1 (some centres undefined)
inactive: A549 32.7 µM | COLO 205 37.2 µM | HT-29 31.8 µM | IGROV-1 48.8 µM | K562 28.4 µM | KM12 33.4 µM | NCI-H23 41.5 µM | NCI-H460 50.1 µM | OVCAR-3 > 100 µM | OVCAR-5 40.6 µM | SF-539 22.5 µM | SK-MEL-5 35.8 µM | SK-OV-3 > 100 µM | SNB-19 33.1 µM | SW-620 61.1 µM | TK-10 74.1 µM | U-251 17.9 µM | UACC-62 29.1 µM | UO-31 59.8 µM

O=c1cc(-c2ccncc2)[nH]c2cc3c(cc12)OCO3
inactive: A549 > 100 µM | COLO 205 > 100 µM | HT-29 > 100 µM | IGROV-1 > 100 µM | KM12 > 100 µM | NCI-H23 > 100 µM | NCI-H460 > 100 µM | OVCAR-3 > 100 µM | OVCAR-5 > 100 µM | SF-268 > 100 µM | SF-539 > 100 µM | SK-MEL-5 > 100 µM | SK-OV-3 > 100 µM | SNB-19 > 100 µM | SW-620 > 100 µM | TK-10 > 100 µM | U-251 > 100 µM | UACC-62 > 100 µM | UO-31 > 100 µM

Cc1cc(NC(=S)SCc2ccc(F)cc2)c([N+](=O)[O-])cc1C
inactive: A549 27.7 µM | COLO 205 19.3 µM | HT-29 13.6 µM | K562 32.3 µM | KM12 19.9 µM | NCI-H23 29.8 µM | NCI-H460 36.7 µM | OVCAR-3 22.6 µM | OVCAR-5 21.6 µM | SF-268 31.5 µM | SF-539 23.8 µM | SK-MEL-5 8.71 µM | SK-OV-3 32.3 µM | SNB-19 23.2 µM | SW-620 27.5 µM | TK-10 24.2 µM | U-251 22.4 µM | UACC-62 15 µM

CC(=O)O[C@@H]1[C@H]2[C@@H](OC(=O)c3ccccc3)[C@@H](C)C[C@]2(O)[C@H](OC(C)=O)[C@@]2(C)[C@@H]3C[C@@](C)(OC(C)=O)C[C@@H](OC(C)=O)[C@@]3(OC(C)=O)C[C@@]12C
inactive: COLO 205 > 10 µM | IGROV-1 > 10 µM | K562 > 10 µM | KM12 > 10 µM | NCI-H23 > 10 µM | NCI-H460 > 10 µM | OVCAR-3 > 10 µM | OVCAR-5 > 10 µM | SF-268 > 10 µM | SF-539 > 10 µM | SK-MEL-5 > 10 µM | SK-OV-3 > 10 µM | SNB-19 > 10 µM | SW-620 > 10 µM | TK-10 > 10 µM | U-251 > 10 µM | UACC-62 > 10 µM | UO-31 > 10 µM

NC(=O)NNC/C(Cl)=C(\Cl)C(=O)O
inactive: A549 > 100 µM | COLO 205 > 100 µM | HT-29 > 100 µM | IGROV-1 > 100 µM | K562 > 100 µM | KM12 > 100 µM | NCI-H23 > 100 µM | NCI-H460 > 100 µM | OVCAR-3 > 100 µM | OVCAR-5 > 100 µM | SF-268 > 100 µM | SF-539 > 100 µM | SK-MEL-5 > 100 µM | SK-OV-3 > 100 µM | SNB-19 > 100 µM | SW-620 > 100 µM | TK-10 > 100 µM | U-251 > 100 µM | UACC-62 > 100 µM | UO-31 > 100 µM

CC(=O)OCC1OC(N2C(=O)NC(=O)C3C=C4CCCCC4=CC32)C(OC(C)=O)C1OC(C)=O (centres undefined)
inactive: A549 > 100 µM | COLO 205 > 100 µM | IGROV-1 > 100 µM | K562 > 100 µM | NCI-H23 > 100 µM | NCI-H460 > 100 µM | OVCAR-3 > 100 µM | OVCAR-5 > 100 µM | SF-539 > 100 µM | SK-MEL-5 > 100 µM | SK-OV-3 > 100 µM | SNB-19 > 100 µM | SW-620 > 100 µM | TK-10 > 100 µM | U-251 > 100 µM | UACC-62 > 100 µM | UO-31 > 100 µM

COc1ccccc1Cc1nc(-c2ccccc2)nn(C2OC(COC(C)=O)C(OC(C)=O)C(OC(C)=O)C2OC(C)=O)c1=S (centres undefined)
inactive: A549 16.4 µM | COLO 205 > 40.4 µM | HT-29 > 48.3 µM | IGROV-1 31.1 µM | K562 > 58.3 µM | KM12 > 54.6 µM | NCI-H23 11.2 µM | NCI-H460 > 43.9 µM | OVCAR-3 21.6 µM | OVCAR-5 > 100 µM | SF-268 6.1 µM | SF-539 9.14 µM | SK-MEL-5 8.73 µM | SK-OV-3 36.7 µM | SNB-19 5.75 µM | SW-620 > 72.8 µM | U-251 13.2 µM | UACC-62 14.5 µM | UO-31 > 48.2 µM

O=C1CC(=O)c2c(O)cc(O)c(c2O)-c2c(ccc(O)c2O)C2=CC(=O)c3c(O)cc(O)c(c3O2)-c2c1ccc(O)c2O.O=C1CC2(O)Oc3c1c(O)cc(O)c3-c1c(ccc(O)c1O)-c1cc(=O)c3c(O)cc(O)c(c3o1)-c1c2ccc(O)c1O
inactive: A549 > 50 µM | COLO 205 > 50 µM | HT-29 > 50 µM | IGROV-1 > 50 µM | K562 > 50 µM | NCI-H23 > 50 µM | NCI-H460 > 50 µM | OVCAR-3 > 50 µM | OVCAR-5 > 50 µM | SF-268 > 50 µM | SF-539 > 50 µM | SK-MEL-5 > 50 µM | SK-OV-3 > 50 µM | SNB-19 > 50 µM | SW-620 > 50 µM | TK-10 > 50 µM | U-251 > 50 µM | UACC-62 > 50 µM | UO-31 > 50 µM

c1ccc(C(NC2=NCCO2)C2CC2)cc1 (centres undefined)
inactive: A549 > 100 µM | COLO 205 > 100 µM | HT-29 58.1 µM | IGROV-1 > 100 µM | KM12 > 100 µM | NCI-H23 > 100 µM | NCI-H460 75.2 µM | OVCAR-3 > 100 µM | OVCAR-5 > 100 µM | SF-268 > 100 µM | SF-539 32.3 µM | SK-MEL-5 > 100 µM | SK-OV-3 > 100 µM | SNB-19 88.9 µM | SW-620 > 100 µM | TK-10 > 100 µM | U-251 > 100 µM | UACC-62 > 100 µM | UO-31 > 100 µM

O=C(O)C1(C(O)c2ccccc2)SCCCS1 (centres undefined)
inactive: A549 > 10 µM | HT-29 > 10 µM | IGROV-1 > 10 µM | K562 > 10 µM | KM12 > 10 µM | NCI-H23 > 10 µM | NCI-H460 > 10 µM | OVCAR-3 > 10 µM | OVCAR-5 > 10 µM | SF-268 > 10 µM | SF-539 > 10 µM | SK-MEL-5 > 10 µM | SK-OV-3 > 10 µM | SNB-19 > 10 µM | SW-620 > 10 µM | TK-10 > 10 µM | U-251 > 10 µM | UACC-62 > 10 µM | UO-31 > 10 µM
